In patent US10173995B2, “Pyridine compounds used as PI3 kinase inhibitors” (Teligene Ltd., priority 2013, dated 2019):

Experiments:
PI3K alpha (PIK3CA) = PI3K alpha (PIK3CA) (Homo sapiens (Human), UniProt P42336); assay: In vitro assay of ability to inhibit PI3K alpha activity (phage-tagged kinase competition binding, qPCR)
Description: (§1) (a) An in vitro assay which determines the ability of a test compound to inhibit PI3K alpha activity: PI3 alpha (PIK3CA) kinase-tagged T7 phage strains were prepared in an E. coli host derived from the BL21 strain. E. coli were grown to log-phase and infected with T7 phage and incubated with shaking at 32° C. until lysis. The lysates were centrifuged and filtered to remove cell debris. The remaining kinases were produced in HEK-293 cells and subsequently tagged with DNA for qPCR detection. […] The liganded beads were blocked with excess biotin and washed with blocking buffer (SeaBlock (Pierce), 1% BSA, 0.05% Tween 20, 1 mM DTT) to remove unbound ligand and to reduce non-specific binding. Binding reactions were assembled by combining kinases, liganded affinity beads, and test compounds in 1× binding buffer (20% SeaBlock, 0.17×PBS, 0.05% Tween 20, 6 mM DTT). All reactions were performed in polystyrene 96-well plates in a final volume of 0.135 ml. The assay plates were incubated at room temperature with shaking for 1 hour and the affinity beads were washed with wash buffer (1×PBS, 0.05% Tween 20). […] The kinase concentration in the eluates was measured by qPCR.
An 11-point 3-fold serial dilution of each test compound was prepared in 100% DMSO at 100× final test concentration and subsequently diluted to 1× in the assay (final DMSO concentration=1%).
Binding constants (Kd's) were calculated with a standard dose-response curve using the Hill equation: Response=Background+(Signal−Background)/(1+(Kd^Hill Slope/Dose^Hill Slope)) The Hill Slope was set to −1. Curves were fitted using a non-linear least square fit with the Levenberg-Marquardt algorithm.

A549 cell line xenograft = assay: In vivo subcutaneous A549 cell line xenograft model in nude mice, tumor growth inhibition; conditions: for Tumor growth inhibition (TGI, %) at 14 days: day 14, A549 xenograft nude mice
Description: (§2) A representative protocol for the in vivo experiment is as follows to establish the subcutaneous A549 cell line xenograft model in nude mice and to evaluate the in vivo therapeutic efficacy of the compounds: A549 cells were cultured in RPMI1640 containing 10% fetal bovine serum, 1% L-glutamine, 100 U/mL penicillinG and 100 μg/mL streptomycin. Cells in logarithmic growth phase were harvested and resuspended in 1×PBS for implantation.
(§3) Tumor xenografts were established by injecting tumor cells 5×10^6/mouse into the right flank by sc under sterile conditions. When the tumors reached an appropriate size (100-200 mm^3), mice were randomized into 6 mice per group (8 mice in control group). The tumors were measured using a caliper in two dimensions, length (a), and width (b). Tumor volumes were estimated from measurements of two diameters of the individual tumors as follows: Tumor Volume(mm^3)=(a×b^2)/2 The tumor sizes and animal body weights were measured twice a week. Mice were observed daily for clinical signs. Blood samples were collected 2 hours after last treatment; plasma samples were prepared and stored at −80° C. Tumor tissues were separated, weighed, taken picture, and subsequently stored at −80° C. for further analysis. All animal experiments were performed in accordance with the Guidelines for Use and Care of Animals of the University of Traditional Medicine. The parameters for in vivo efficacy evaluation were calculated according to the guidance of SFDA. Percent T/C (%) was calculated with the following formula: T/C(%)=(TRTV/CRTV)×100%, where TRTV and CRTV stand for relative tumor volume in treatment group and vehicle control group, respectively. Relative tumor volume (RTV) was calculated using the formula: RTV=Vt/V0, where Vt represents volume on testing day, and V0 represents volume on first day of treatment. Tumor growth inhibition (TGI, %) were calculated as TGI (%)=(Ctw−Ttw)/Ctw×100%, where Ctw and Ttw represent mean tumor weight in vehicle control and treatment group, respectively.
(§4) Compound Preparation: Test articles were dissolved in 100% N-methylpyrrolidone (NMP) and 10× solutions were prepared every five days, aliquotted, and stored in the dark at room temperature. On each treatment day, stock solution aliquots were diluted with polyethylene glycol (PEG300) to provide the formulated drug in 10% NMP: 90% PEG300. Dosing solutions were protected from light, and the formulated drug was administered within 1 hour after preparation. In all groups, the dosing volume of 10 mL/kg (0.2 mL/20 g mouse) was scaled to the weight of each animal as determined on the day of dosing, except on weekends when the previous BW is carried forward. Test articles were administered by oral gavage (p.o.) once daily until the end of the study.
(§5) At study endpoint, after blood collection, mice were practiced euthanasia by cervical dislocation, the tumor tissue was collected first, then abdominal cavity was cut open, liver and spleen were excised, then weight after the gallbladder was removed respectively. Organ weight between the treated versus the control groups were compared.

[1] = Kidney weight change versus control in A549 xenograft model in nude mice; format: in vivo; conditions: day 21, A549 xenograft nude mice
Description: as §2, §3, §4, §5

[2] = tested on: MCF-7 human breast cancer cell lines; assay: MCF-7 cell proliferation assay (CCK-8/WST-8, 72 hours); format: cell-based; conditions: MCF7, WST-8
Description: A representative number of compounds were assayed against MCF-7 human breast cancer cell lines using the cell proliferation assay:
1. MCF-7 cells were cultured in EMEM (GIBCO, Cat#41500) medium supplemented with 10% fetal bovine serum, 0.01 mg/ml human recombinant insulin and 1% penicillin-streptomycin solution, in the temperature of 37° C., 5% CO2 and 95% humidity. The cells were harvested during the logarithmic growth period and counted with hemocytometer. The cell viability will be over 98% by trypan blue exclusion. Cell Counting Kit-8 (Dojindo, Cat# CK04) was used. 2. A cell suspension (100 μl) was added into 96-well plates (triplicates for each cell concentration), the cell density was 4.0×10^3/well. The next day, the test articles or positive drug stock solution were dissolved in DMSO at the concentration of 10 mM, the stock solutions were diluted with DMSO by serial 3 or 10 fold dilution. Then the test articles dilutions were further diluted with culture medium to the final concentrations of (10.0 μM, 3.33 μM, 1.11 μM, 366 nM, 122 nM, 40.7 nM, 13.6 nM, 4.52 nM and 0 nM), the positive drug dilutions were further diluted with culture medium to 9 final concentrations of (10 μM, 1 μM, 100 nM, 10 nM, 1 nM, 0.1 nM, 0.01 nM, 0.001 nM and 0 nM). […] The absorbance was recorded at 450 nm using Victor Multilabel Plate Reader. […]

[3] = biological target: MTOR (Mammalian target of rapamycin) (Homo sapiens (Human), UniProt P42345); assay: In vitro assay of ability to inhibit MTOR (same conditions as PI3K alpha assay); format: binding; conditions: read-out: IC50 for MTOR inhibition
Description: as §1, with “qPCR. […]” for “qPCR.”
Binding constants (Kd's) were calculated with a standard dose-response curve using the Hill equation: Response=Background+(Signal−Background)/(1+(Kd^Hill Slope/Dose^Hill Slope)) The Hill Slope was set to −1. […]

[4] = 49 μmol/kg oral gavage once daily
[5] = 98 μmol/kg oral gavage once daily

Chain of PI3K alpha (PIK3CA) (P42336 whole entry, species assumed): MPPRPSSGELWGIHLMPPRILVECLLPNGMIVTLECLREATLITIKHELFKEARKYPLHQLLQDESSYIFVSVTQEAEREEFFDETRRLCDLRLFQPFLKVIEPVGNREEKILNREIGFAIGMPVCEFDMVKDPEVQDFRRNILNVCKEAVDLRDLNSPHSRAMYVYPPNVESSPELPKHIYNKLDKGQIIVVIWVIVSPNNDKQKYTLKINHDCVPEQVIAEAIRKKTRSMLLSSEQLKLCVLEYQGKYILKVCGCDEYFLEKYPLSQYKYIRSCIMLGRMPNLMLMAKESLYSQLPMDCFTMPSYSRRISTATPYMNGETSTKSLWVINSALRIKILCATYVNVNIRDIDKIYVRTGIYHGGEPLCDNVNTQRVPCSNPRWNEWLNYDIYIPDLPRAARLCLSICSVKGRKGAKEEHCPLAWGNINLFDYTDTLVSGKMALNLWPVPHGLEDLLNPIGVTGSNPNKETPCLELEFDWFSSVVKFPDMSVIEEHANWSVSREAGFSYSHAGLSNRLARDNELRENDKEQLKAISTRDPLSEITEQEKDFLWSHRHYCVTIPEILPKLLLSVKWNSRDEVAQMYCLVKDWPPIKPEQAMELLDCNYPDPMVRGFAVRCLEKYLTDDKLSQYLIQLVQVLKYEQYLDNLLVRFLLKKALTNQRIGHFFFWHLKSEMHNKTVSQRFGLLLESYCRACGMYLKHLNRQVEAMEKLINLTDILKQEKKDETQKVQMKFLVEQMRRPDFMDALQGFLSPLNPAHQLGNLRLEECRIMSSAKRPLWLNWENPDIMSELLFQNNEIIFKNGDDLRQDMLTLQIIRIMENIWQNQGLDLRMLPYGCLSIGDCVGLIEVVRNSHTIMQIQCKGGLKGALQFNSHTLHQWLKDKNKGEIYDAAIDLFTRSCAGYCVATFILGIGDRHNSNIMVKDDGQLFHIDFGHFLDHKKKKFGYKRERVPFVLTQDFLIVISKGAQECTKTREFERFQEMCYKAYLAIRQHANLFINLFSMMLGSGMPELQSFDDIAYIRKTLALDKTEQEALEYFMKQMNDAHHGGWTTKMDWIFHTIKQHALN

Compound	IC50 (PI3K alpha (PIK3CA))	Tumor growth inhibition (TGI, %) at 14 days (A549 cell line xenograft; [4])	Tumor growth inhibition (TGI, %) at 14 days (A549 cell line xenograft; [5])	Kidney weight change compared to the control at 21 days [1, 4]	Kidney weight change compared to the control at 21 days [1, 5]	IC50 [2]	other results
CCNc1cc(C(F)(F)F)c(-c2cc(N3CCOCC3)nc(N3CCOCC3)n2)cn1 [Compound 5, 5-(2,6-dimorpholinopyrimidin-4-yl)-N-ethyl-4-(trifluoromethyl)pyridin-2-amine]	10 nM	–	–	–	–	–	–
CNc1cc(C(F)(F)F)c(-c2cc(N3CCOCC3)nc(N3CCOCC3)n2)cn1 [Compound 4, 5-(2,6-dimorpholinopyrimidin-4-yl)-N-methyl-4-(trifluoromethyl)pyridin-2-amine]	1.9 nM	–	–	–	–	–	–
CCCNc1cc(C(F)(F)F)c(-c2cc(N3CCOCC3)nc(N3CCOCC3)n2)cn1 [Compound 6, 5-(2,6-dimorpholinopyrimidin-4-yl)-N-propyl-4-(trifluoromethyl)pyridin-2-amine]	60 nM	–	–	–	–	–	–
Nc1cc(C(F)(F)F)c(-c2cc(N3CCOCC3)nc(N3CCOCC3)n2)cn1 [Compound 1, 5-(2,6-Dimorpholinopyrimidin-4-yl)-4-(trifluoromethyl)pyridin-2-amine, reference compound]	–	36%	70%	−8.7%	−20.1%	186 nM	–
CC(=O)Nc1cc(C(F)(F)F)c(-c2cc(N3CCOCC3)nc(N3CCOCC3)n2)cn1 [Compound 2, N-(5-(2,6-dimorpholinopyrimidin-4-yl)-4-(trifluoromethyl)pyridin-2-yl)acetamide]	–	52%	82%	–	–	82.4 nM	–
NCC(=O)Nc1cc(C(F)(F)F)c(-c2cc(N3CCOCC3)nc(N3CCOCC3)n2)cn1 [Compound 9, 2-amino-N-(5-(2,6-dimorpholinopyrimidin-4-yl)-4-(trifluoromethyl)pyridin-2-yl)acetamide]	0.84 nM	–	–	−5.0%	−8.1%	–	IC50 [3]: 26 nM; Efficacy in A549 xenograft model at day 21 (in words) (A549 cell line xenograft; 49 μmol/kg dose, day 21): better efficacy than Compound 1; Kidney weight decrease compared with the control (in words) [1]: much less decreased kidney weight than Compound 1
